Measured values published in patent US7897732B2, “Antibodies to heparin-binding growth factor (HBGF) polypeptides” (Childrens Hospital Research Foundation, priority 1997, dated 2011).

How the values were obtained:
[1] = [3H]heparin binding of synthetic CTGF polypeptides on nitrocellulose dot-blot; conditions: 37.5 nmol polypeptide on nitrocellulose, 10 μCi/ml [3H]heparin, room temperature
Excerpt: Eighteen synthetic polypeptides spanning the entire 103 C-terminal residues of CTGF were synthesized and received as a cleaved PepSet™ from Chiron Mimotopes (Clayton, Victoria, Australia). All polypeptides were synthesized with acetylated N-termini and amidated C-termini except CTGF-(247-255) and CTGF-(247-260), which were synthesized with free N-terminal amines, and CTGF-(326-349) and CTGF-(339-349), which were synthesized with acid C-termini (Table 3).
All polypeptides contained one or no Cys residues; Cys^292 in CTGF(285-292) and Cys^325 in CTGF-(318-328) were replaced with Ser to prevent intra-chain disulfide bridging to Cys^287 or Cys^323 within the respective polypeptides. Heparin-binding properties were determined using an adaptation of the method of Baird et al. (Baird, A., et al. Proc. Natl. Acad. Sci. U.S.A. 85, 2324-2328(1988)). Briefly, 37.5 nmol of each polypeptide were absorbed in duplicate to nitrocellulose using a dot-blot apparatus. The blot was blocked for 30 min. with 10 mM Tris-HCl, 0.15 M NaCl, 0.1% bovine serum albunin (pH 7.4) and then incubated for 3 hr. at room temperature in this solution containing 10 μCi/ml [^3H]heparin (NEN Life Science Products). The blot was washed four times with 10 mM Tris-HCl, 0.15 M NaCl, and individual dots were mixed with scintillation fluid for counting of [^3H].

[2] = test system: bovine capillary endothelial cells (BCECs); test: BCEC DNA synthesis assay; format: cell-based
Protocol: (§1) Target cell specificity was studied using Balb/c 3T3 cells, bovine capillary endothelial cells (BCECs), and vascular smooth muscle cells. 3T3 cells were utilized as described above. BCECs were obtained from Dr. J. Folkman (Children's Hospital, Boston, Mass.) and were maintained in gelatinized culture flasks in Dulbecco's modified Eagle's medium containing 3 ng/ml bFGF and 10% heat-inactivated bovine calf serum. Smooth muscle cells were isolated from a 2-3-cm length of pig thoracic aorta using established procedures (Weich, H. A., et al., Growth Factors 2, 313-320 (1990)) and maintained in 10% Dulbecco's modified Eagle's medium, 10% fetal bovine serum. BCEC and smooth muscle cell DNA synthesis assays were performed in 48- or 96-well plates essentially as described (Besner, G. E., Higashiyama, S., and Kagsbrun, M. Cell Regul. 1, 811-819 (1990)). BCEC DNA synthesis assays were also performed in the presence of 100 μg/ml porcine heparin.

[3] = test system: Vascular smooth muscle cells; test: Smooth muscle cell DNA synthesis assay; format: cell-based, pig; conditions: 3 ng/ml
Protocol: as §1

[4] = test system: Balb/c 3T3 fibroblasts; test: DNA synthesis ([3H]thymidine incorporation) assay in confluent quiescent Balb/c 3T3 cells; format: cell-based; conditions: for [3H]Thymidine incorporation (mean ± S.D.): Balb/c 3T3 fibroblasts
Protocol: To assess the relative mitogenic capability of HBGFs with IGF-1, EGF, bFGF, and PDGF-AB, DNA synthesis assays on 3T3 cells were performed (Table 4). Biologically active fractions containing the 0.3-0.6 M NaCl eluate from the Bio-Rex column were pooled, diluted 3-fold with 20 mM Tris-HCL (pH 7.4) containing 0.1% CHAPS, passed through a 0.45-μm membrane filter, placed in a siliconized polypropylene vessel, and applied with a peristaltic pump to an EconoPac heparin column (0.7×3.6 cm; Bio-Rad) at 2 ml/min. The heparin column was then washed with 50 ml of 20 mM Tris-HCl buffer, 0.2 M NaCl, 0.1% CHAPS and developed at 1 ml/min with a 40 ml gradient of 0.1-2.0 M NaCl in 20 mM Tris-HCl, 0.1% CHAPS (pH 7.4) using a fast protein liquid chromatography (FPLC) system (Pharmacia Biotech Inc.). Fractions (1 ml) were collected into siliconized tubes during NaCl gradient elution and tested for 3T3 cell mitogenic activity. Column fractions were tested for their ability to stimulate DNA synthesis as measured by [^3H]thymidine incorporation into the DNA of confluent quiescent Balb/c 3T3 cells grown in 200 μl of Dulbecco's modified Eagle's medium, 10% bovine calf serum in 96-well culture plates as described (Kim, G. Y., et al., Biol. Reprod. 52, 561-571 (1995)). Dose-response curves to purified growth factors from ULF were established by assaying each dose in triplicate, with data computed as mean±S.D. Statistical significance of the effects of 1-100 μg/ml porcine heparin (Sigma) on growth factor activity was determined by Students' t test.

| Substance | [3H]Heparin bound (mean ± S.D.) [1] | other results |
| --- | --- | --- |
| CTPHRTTTLPVEFK (Ac-CTPHRTTTLPVEFK-NH2) [CTGF-(293-306)] | 9 ± 1.1 cpm/μg | – |
| EENIKKGKK [CTGF-(247-255)] | 10 ± 0.3 cpm/μg | – |
| EENIKKGKKCIRTP [CTGF-(247-260)] | 836 ± 1 cpm/μg | – |
| FKCPDGEVMKKNMMFIKT (Ac-FKCPDGEVMKKNMMFIKT-NH2) [CTGF-(305-322)] | 237 ± 22 cpm/μg | – |
| GVCTDGR (Ac-GVCTDGR-NH2) [CTGF-(285-291)] | 7 ± 0.3 cpm/μg | – |
| IRTPKISKPIKFELSG (Ac-IRTPKISKPIKFELSG-NH2) [CTGF-(257-272)] | 70 ± 13 cpm/μg | – |
| TPHRTTTLPVEFK (Ac-TPHRTTTLPVEFK-NH2) [CTGF-(294-306)] | 11 ± 0.4 cpm/μg | – |
| TPKISKPIKFELSGCTS (Ac-TPKISKPIKFELSGCTS-NH2) [CTGF-(259-275)] | 124 ± 3 cpm/μg | – |
| TSMKTYRAKF (Ac-TSMKTYRAKF-NH2) [CTGF-(274-283)] | 388 ± 12 cpm/μg | – |
| TSMKTYRAKFCGV (Ac-TSMKTYRAKFCGV-NH2) [CTGF-(274-286)] | 1108 ± 119 cpm/μg | – |
| aFGF: acidic fibroblast growth factor | – | [3H]Thymidine incorporation (mean ± S.D.) ([2]; 3 ng/ml): 603 ± 46 Cpm/well; [3H]Thymidine incorporation (mean ± S.D.) ([2]; 3 ng/ml + 100 μg/ml heparin): 2,232 ± 236 Cpm/well |
| basic fibroblast growth factor [bFGF] | – | [3H]Thymidine incorporation (mean ± S.D.) ([2]; 3 ng/ml): 2,865 ± 276 Cpm/well; [3H]Thymidine incorporation (mean ± S.D.) ([2]; 3 ng/ml + 100 μg/ml heparin): 1,840 ± 4 Cpm/well; [3H]Thymidine incorporation (mean ± S.D.) [3]: 3,082 ± 374 Cpm/well; [3H]Thymidine incorporation (mean ± S.D.) ([4]; 10 ng/ml): 73,853 ± 3,122 Cpm/well |
| epidermal growth factor [EGF, reference compound] | – | [3H]Thymidine incorporation (mean ± S.D.) [3]: 1,343 ± 378 Cpm/well; [3H]Thymidine incorporation (mean ± S.D.) ([4]; 30 ng/ml): 11,550 ± 101 Cpm/well |
| heparin [reference compound] | – | [3H]Thymidine incorporation (mean ± S.D.) ([2]; 100 μg/ml): 240 ± 52 Cpm/well; Effect on basal or calf serum-stimulated DNA synthesis in 3T3 cells ([4]; 1-100 μg/ml heparin): no effect |
| insulin-like growth factor [IGF-1, reference compound] | – | [3H]Thymidine incorporation (mean ± S.D.) ([4]; 30 ng/ml): 4,412 ± 170 Cpm/well |
| platelet-derived growth factor [PDGF-AB, reference compound] | – | [3H]Thymidine incorporation (mean ± S.D.) ([4]; 30 ng/ml): 110,110 ± 7,077 Cpm/well |

Further lines, with some results ahead:

| [3H]Heparin bound (mean ± S.D.) [1] | Substance | other results |
| --- | --- | --- |
| 9 ± 1 cpm/μg | ACHYN [CTGF-(324-328)] | – |
| 8 ± 0.4 cpm/μg | GVCTDGRS (Ac-GVCTDGRS-NH2) [Ser^292 CTGF-(285-292)] | – |
| 10 ± 1 cpm/μg | HYNCPGDNDIFESLYYRKMYGDMA (Ac-HYNCPGDNDIFESLYYRKMYGDMA-OH) [CTGF-(326-349)] | – |
| 9 ± 0.5 cpm/μg | LYYRKMYGDMA (Ac-LYYRKMYGDMA-OH) [CTGF-(339-349)] | – |
| 475 ± 116 cpm/μg | MFIKTCA (Ac-MFIKTCA-NH2) [CTGF-(318-324)] | – |
| 601 ± 40 cpm/μg | MFIKTCASHYN (Ac-MFIKTCASHYN-NH2) [Ser^325 CTGF-(318-328)] | – |
| 71 ± 2 cpm/μg | PDGEVMKKNMMFIKT (Ac-PDGEVMKKNMMFIKT-NH2) [CTGF-(308-322)] | – |
| 10 ± 0.5 cpm/μg | PGDNDIFESLY (Ac-PGDNDIFESLY-NH2) [CTGF-(330-340)] | – |
